Entries after “also recorded” stand apart in the source; their conditions may differ. Where two headings read alike, the source gives them in different places.
Columns and labels:
HSV-1 [1] = assay type: cell-based, HSV-1 KOS strain
HSV-1 [2] = assay type: cell-based, HSV-1 KOS strain; remark: listed apart in the source
HSV-2 [3] = assay type: cell-based, HSV-2 333 strain
HSV-2 [4] = assay type: cell-based, HSV-2 333 strain; remark: listed apart in the source
VSV = assay type: cell-based, Indiana strain VSV; conditions: SH-SY5Y cells, 0.5 μM, 2 h pre-treatment, MOI 0.001, 18 h; versus DMSO control
EMCV = assay type: cell-based, FA strain EMCV
Influenza A virus = test: RT-qPCR of Influenza A virus matrix 2 (M2) RNA in infected SH-SY5Y cells; assay type: cell-based, Influenza virus A (H1N1) strain PR8; conditions: 1 μM, 2 h pre-treatment, MOI 0.1, 48 h, versus DMSO control
HSV-1 [5] = test: virus plaque assay of supernatant from HSV-1 infected mouse primary neurons; assay type: cell-based, HSV-1 KOS strain; conditions: 0.5 μM, 2 h pre-treatment, MOI 3, 72 h, versus DMSO control
Procedure: (§1) The isolated mouse primary-neurons were pre-treated with ML228 and DMSO at a concentration of 0.5 μM for 2 hours and were infected with HSV-1, at a MOI of 3 and HSV-2, at a MOI of 2. After 4 hours infection, the virus was removed and the cells were incubated with ML228 and DMSO for 72 hours. After 72 hours, the supernatant was used for virus plaque assay and the cells were lysed for RNA-extraction and RT-qPCRt.
(§2) Supernatants collected from mouse primary neurons treated with ML228 and DMSO and infected with HSV-1 and HSV-2, were used for virus titer in a virus plaque assay. For this purpose, Vero cells at a density of 1.2×10^6 cells/petri dish, in DMEM were seeded and left overnight in order to settle and to form a monolayer. The next day, cells were infected with 100 μL of supernatant in appropriate serial dilutions. The cells were incubated for 1 hour at 37° C. Subsequently, 5 ml DMEM supplemented with 0.2% normal human immunoglobin (Octapharma) were added to the cells. The plates were incubated for 2-3 days at 37° C. and stained with 0.03% methyl blue. The plaques were counted and the results were represented as PFU (plaque-forming units) per sample.

HSV-1 [6] = test: RT-qPCR of HSV-1 glycoprotein B RNA in infected mouse primary neurons; assay type: cell-based, HSV-1 KOS strain; conditions: 0.5 μM, 2 h pre-treatment, MOI 3, 72 h, versus DMSO control
Procedure: as §1
(§3) The RT-qPCR results were obtained by total RNA extraction using the High Pure RNA Isolation kit (Roche) according to the manufacturer's instructions. RNA quality and concentration was assessed using Nanodrop spectrometry (Thermo Fisher). Viral replication was analysed by measuring RNA level against HSV-(1/2) Glycoprotein B (gB) using Brilliant III Ultra-Fast SYBR Green QRT-PCR Master Mix kit (Agilent Technology). CT values were normalized versus 18srRNA (ACT) in HSV-(1/2) infection.

HSV-2 [7] = test: virus plaque assay of supernatant from HSV-2 infected mouse primary neurons; assay type: cell-based, HSV-2 333 strain; conditions: 0.5 μM, 2 h pre-treatment, MOI 2, 72 h, versus DMSO control
Procedure: as §1, §2

HSV-2 [8] = test: RT-qPCR of HSV-2 glycoprotein B RNA in infected mouse primary neurons; assay type: cell-based, HSV-2 333 strain; conditions: 0.5 μM, 2 h pre-treatment, MOI 2, 72 h, versus DMSO control
Procedure: as §1, §3

IRF1 gene expression = test: RNA-sequencing of IRF1 gene expression in SH-Sy5y cells upon ML228 treatment; assay type: cell-based, human; conditions: SH-Sy5y cells treated with AAVS1 sgRNA, ML228 0.5 μM for 8 h versus DMSO control

`c1ccc(-c2ccc(CNc3nc(-c4ccccn4)nnc3-c3ccccc3)cc2)cc1` [ML228] was tested, and the “number of plaque forming units (PFU) in titer, HSV-1” value (HSV-1 [1]) was “completely counteract the virus infection; also recorded: significantly decreased”, the “HSV-1 replication (virus gB RNA level)” value (HSV-1 [2]) was “significantly decreased” and the “number of plaque forming units (PFU) in titer, HSV-2” value (HSV-2 [3]) was “completely counteract the virus infection; also recorded: significantly decreased”. The “HSV-2 replication (virus gB RNA level)” value (HSV-2 [4]) was “significantly decreased”, the “VSV titer / virus cytopathic effect (TCID50%)” value (VSV) was “significantly reduces the virus cytopathic effect; also recorded: significantly decreased” and the “EMCV titer / virus cytopathic effect (TCID50%)” value (EMCV) was “significantly decreased”. The “Influenza A virus replication (virus M2 RNA level)” value (Influenza A virus) was “also reduced; also recorded: significantly decreased”, the “number of plaque forming units (PFU) in titer, HSV-1” value (HSV-1 [5]) was “significantly reduced; also recorded: significantly decreased” and the “HSV-1 replication (virus gB RNA level)” value (HSV-1 [6]) was “reduction of the viral replication; also recorded: significantly decreased”. The “number of plaque forming units (PFU) in titer, HSV-2” value (HSV-2 [7]) was “significantly less plaque-forming units; also recorded: significantly decreased”, the “HSV-2 replication (virus gB RNA level)” value (HSV-2 [8]) was “severely inhibited; also recorded: significantly decreased” and the “IRF1 gene expression, log 2 fold change” value (IRF1 gene expression) was 0.6842.
